# Test results: patent publication US20130302305A1, “Methods for Treating Gout in Patients Subpopulations” (Metabolex, Inc., priority 2011, published 2013)
# Where “and” joins values, the source holds several entries; their conditions need not be identical. Equal values may be shown once.
# What was measured:
# gout patients = conditions: monotherapy at 40, 80, 120, 160 and 240 mg/day; cited from earlier work
# [1] = test system: type 2 diabetes patients inadequately controlled on existing insulin therapy; test: Phase 2 study M102-20303: fasting plasma glucose (FPG); assay type: in vivo, human; conditions: for mean observed change in FPG from baseline at Week 12: all patients
# Description: (§1) FIGS. 5-7 were generated based on a randomized, double-blind, placebo-controlled phase 2 study, M102-20303. In this study, two dose levels of (−)-halofenate (200 mg and 400 mg) or placebo were given orally daily for 12 weeks to a total of 217 type 2 diabetes patients who were inadequately controlled on existing insulin therapy. In addition to their stable dose of insulin, these patients received the study drug for 12 weeks, and followed up for an additional four weeks. In this study, change in HbA1c from baseline at week 16 was the primary endpoint and changes in fasting plasma glucose and triglyceride from baseline at Week 12 were secondary endpoints. In order to maintain the blinded status, the HbA1c results following administration of double-blind study medication were not available to any parties until the studies were unblinded. In this study, patients were not allowed to add any other glucose lowering agent(s) or to change their existing doses of insulin. Patients who added lipid lowering agent(s) or changed their existing doses of lipid lowering agent(s) were excluded from the triglyceride analysis. Patients who received (−)-halofenate during the study but had no measurable (−)-halofenate in the blood were defined as non-compliant and were excluded from the analysis.
# type 2 diabetic patients [2] = test: Pooled analysis of four phase 2 studies: estimated creatinine clearance (Cockcroft-Gault), kidney function status; assay type: in vivo, human; conditions: for Mean Baseline estimated Cr Cl (mL/min) (second column of that head, c3): all analysed patients
# Description: (§2) FIGS. 1-4 were generated based on the pooled analysis of four phase 2 studies conducted with (−)-halofenate in type 2 diabetic patients. In these studies a total of 955 patients were enrolled. In the M102-20303 study, two dose levels of (−)-halofenate (200 mg and 400 mg) or placebo were given orally daily to a total of 217 patients for 12 weeks. In the M102-20405 study, (−)-halofenate at a dose of 600 mg or placebo was given daily to a total of 100 patients for 12 weeks. In the M102-20509 study, three dose levels of (−)-halofenate (200 mg, 400 mg and 600 mg), Actos® 30 mg or placebo were given orally daily to a total of 396 patients for 16 weeks. In M102-20814 study, two dose levels of (−)-halofenate (400 mg and 600 mg), Actos® 30-45 mg or placebo were given orally daily to a total of 242 patients for 24 weeks. In these studies, change in serum uric acid (sUA) from baseline was one of the important endpoints. In order to maintain the blinded status, the sUA results following administration of double-blind study medication were not available to any parties until the studies were unblinded. Patients who added or changed the existing doses of medications that are known to influence serum uric acid levels were excluded from the serum uric acid analysis. Patients received either (−)-halofenate or matching placebo during the study were included in this exploratory analysis. Patients who received (−)-halofenate during the study but had no measurable (−)-halofenate in the blood were defined as non-compliant and were excluded from the analysis. This analysis indicated statistically significant dose dependent reduction in serum uric acid from baseline: 2% in the placebo group (n=252), −11% in the 200 mg group (n=125), −20% in the 400 mg group (n=174), and −27% in the 600 mg group (n=159); p<0.0001 for all dose groups. In order to evaluate the sUA response in CKD patients, in addition to the analysis described above, the patients were subdivided based on their baseline kidney function status. The kidney function status of each patient was evaluated by estimating the creatinine clearance (glomerular filtration rate) using the Cockcroft-Gault equation [Cockcroft-Gault GFR=(140−age)×(Body weight in kg)×(0.85 if female)/(72×serum creatinine)]. For estimating the baseline creatinine clearance, baseline body weight (kg) and baseline serum creatinine values were used and similarly, for estimating the end-of-the study creatinine clearance, end-of-study body weight and end-of-study serum creatinine values were used. […] In this analysis there were no patients with CKD4 (severe CKD) or CKD5 (kidney failure).
# The changes in estimated creatinine clearance values in the 200 mg, 400 mg, and 600 mg groups compared to placebo group were not statistically significant.
# type 2 diabetic patients [3] = test: Pooled analysis of four phase 2 studies: change in serum uric acid (sUA) from baseline; assay type: in vivo, human; conditions: for reduction in serum uric acid from baseline: all analysed patients, 12-24 weeks (pooled)
# Description: as §2
# [4] = test system: type 2 diabetes patients inadequately controlled on existing insulin therapy; test: Phase 2 study M102-20303: triglycerides; assay type: in vivo, human; conditions: CKD2 and CKD3 (mild to moderate CKD) patients, 400 mg daily for 12 weeks
# Description: as §1
# [5] = test system: type 2 diabetes patients inadequately controlled on existing insulin therapy; test: Phase 2 study M102-20303: HbA1c; assay type: in vivo, human; conditions: for reduction from baseline in HbA1c: all patients, endpoint at week 16
# Description: as §1
# [6] = CKD2 and CKD3 (mild to moderate CKD) patients, 400 mg daily for 12 weeks
compound,measurement,setting,value
"O=c1[nH]cnc2c(CN3C[C@H](CO)[C@@H](O)C3)c[nH]c12 [Ulodesine, 7-(((3R,4R)-3-hydroxy-4-(hydroxymethyl)pyrrolidin-1-yl)methyl)-3H-pyrrolo[3,2-d]pyrimidin-4(5H)-one]",effect on serum uric acid,gout patients,rapidly and significantly reduced serum uric acid
"CC(=O)NCCOC(=O)[C@H](Oc1cccc(C(F)(F)F)c1)c1ccc(Cl)cc1 [(−)-halofenate, (−)-(R)-(4-chloro-phenyl)-(3-trifluoromethyl-phenoxy)-acetic acid 2-acetylamino-ethyl ester]",Change in FPG (%),[1]; [6],−18.0% and −17.6%
same,End-of-study FPG,[1]; [6],136.5 mg/dL
same,mean observed change in FPG from baseline at Week 12,[1]; 200 mg daily,-10.9 mg/dL
same,mean observed change in FPG from baseline at Week 12,[1]; 400 mg daily,-29.2 mg/dL
same,"Mean Baseline estimated Cr Cl (mL/min) (second column of that head, c3)",type 2 diabetic patients [2]; 200 mg daily,102.4 mL/min
same,change in CrCL as compared to placebo,"type 2 diabetic patients [2]; 200 mg, 400 mg and 600 mg per day (FIG. 4)",no clinically significant change in CrCL
same,"Mean Baseline estimated Cr Cl (mL/min) (second column of that head, c3)",type 2 diabetic patients [2]; 400 mg daily,103.5 mL/min
same,"Mean Baseline estimated Cr Cl (mL/min) (second column of that head, c3)",type 2 diabetic patients [2]; 600 mg daily,100.6 mL/min
same,Mean Change in sUA (%),"type 2 diabetic patients [3]; 200 mg daily, CKD2 and CKD3 patients",−14% and −14.30%
same,Mean Change in sUA (%),"type 2 diabetic patients [3]; 400 mg daily, CKD2 and CKD3 patients",−21% and −21.30%
same,Mean Change in sUA (%),"type 2 diabetic patients [3]; 600 mg daily, CKD2 (mild CKD) patients",−28% and −28.2%
same,Mean Change in sUA (%),"type 2 diabetic patients [3]; 600 mg daily, CKD2 and CKD3 patients",−29%
same,Mean Change in sUA (%),"type 2 diabetic patients [3]; 600 mg daily, CKD3 (moderate CKD) patients",−36% and −35.6%
same,Mean Change in sUA (%),"type 2 diabetic patients [3]; 600 mg daily, Normal and CKD1 patients",−25% and −25.3%
same,urate-lowering effect when co-administered with aspirin,"type 2 diabetic patients [3]; 200, 400 and 600 mg daily with low to medium doses of aspirin (<= about 325 mg/day) vs no aspirin",does not result in clinically significant loss of the urate-lowering effect
same,urate-lowering effect when co-administered with diuretics,"type 2 diabetic patients [3]; 200, 400 and 600 mg daily with thiazide or other diuretics vs no diuretics",does not result in clinically significant loss of the urate-lowering effect
same,reduction in serum uric acid from baseline,type 2 diabetic patients [3]; 200 mg orally daily,−11%
same,reduction in serum uric acid from baseline,type 2 diabetic patients [3]; 400 mg orally daily,−20%
same,reduction in serum uric acid from baseline,type 2 diabetic patients [3]; 600 mg orally daily,−27%
same,change in serum uric acid (sUA) from baseline,"type 2 diabetic patients [3]; aspirin treated patients (<= about 325 mg/day), 200 mg daily",−13%
same,change in serum uric acid (sUA) from baseline,"type 2 diabetic patients [3]; aspirin treated patients (<= about 325 mg/day), 400 mg daily",−20%
same,change in serum uric acid (sUA) from baseline,"type 2 diabetic patients [3]; aspirin treated patients (<= about 325 mg/day), 600 mg daily",−27%
same,change in serum uric acid (sUA) from baseline,"type 2 diabetic patients [3]; patients not taking any diuretics, 200 mg daily",−11%
same,change in serum uric acid (sUA) from baseline,"type 2 diabetic patients [3]; patients not taking any diuretics, 400 mg daily",−21%
same,change in serum uric acid (sUA) from baseline,"type 2 diabetic patients [3]; patients not taking any diuretics, 600 mg daily",−27%
same,change in serum uric acid (sUA) from baseline,"type 2 diabetic patients [3]; patients not taking aspirin, 200 mg daily",−10%
same,change in serum uric acid (sUA) from baseline,"type 2 diabetic patients [3]; patients not taking aspirin, 400 mg daily",−20%
same,change in serum uric acid (sUA) from baseline,"type 2 diabetic patients [3]; patients not taking aspirin, 600 mg daily",−26%
same,change in serum uric acid (sUA) from baseline,"type 2 diabetic patients [3]; patients taking any diuretics, 200 mg daily",−12%
same,change in serum uric acid (sUA) from baseline,"type 2 diabetic patients [3]; patients taking any diuretics, 400 mg daily",−15%
same,change in serum uric acid (sUA) from baseline,"type 2 diabetic patients [3]; patients taking any diuretics, 600 mg daily",−24%
same,change in serum uric acid (sUA) from baseline,"type 2 diabetic patients [3]; thiazide diuretic treated patients, 200 mg daily",−16%
same,change in serum uric acid (sUA) from baseline,"type 2 diabetic patients [3]; thiazide diuretic treated patients, 400 mg daily",−17%
same,change in serum uric acid (sUA) from baseline,"type 2 diabetic patients [3]; thiazide diuretic treated patients, 600 mg daily",−24%
same,Change in triglyceride,[4],-33.6 mg/dL
same,End-of-study triglyceride,[4],168.6 mg/dL
same,Change in HbA1c (%),[5]; [6],−1.1%
same,End-of-study HbA1c (%),[5]; [6],8.1%
same,reduction from baseline in HbA1c,[5]; 200 mg daily for 12 weeks on stable insulin,−0.9%
same,reduction from baseline in HbA1c,[5]; 400 mg daily for 12 weeks on stable insulin,−1.0%
